Measurements taken from US10213375B2, “Cosmetic or dermatological compositions combining cosmetiques retinaldehyde and glycylglycine oleamide and the cosmetic or dermatological uses thereof” (PIERRE FABRE DERMO-COSMETIQUE, priority 2013, dated 2019).
Where a SMILES comes first, the peptide text is derived from it.

Columns and labels:
keratinocytes A431 = assay: Modulation of retinylic esters induced by retinoids in keratinocytes (HPLC); type: cell-based; settings: for Retinol / Retinylic esters: incubation 24 to 72 h, averaged values; for Total: retinol plus retinylic esters
Experimental: The study was carried out on keratinocytes A431 in a culture. Indeed, in these cells, no endogenous retinoid was measured. A retinoid has to be applied beforehand in order to measure cell retinoids. The retinoids were measured by HPLC. The incubation in the presence of various agents or combination of agents dissolved in 1% of ethanol in the culture medium, was carried out for 24 to 72 h. These are averaged values expressed in pmol/mg of protein.

glucocerebrosidase = target: T1, glucocerebrosidase (Homo sapiens, UniProt P04062); settings: compared with reference 4-methylumbelliferyl glucopyranoside; cited from earlier work
T1 sequence (P04062 40-536): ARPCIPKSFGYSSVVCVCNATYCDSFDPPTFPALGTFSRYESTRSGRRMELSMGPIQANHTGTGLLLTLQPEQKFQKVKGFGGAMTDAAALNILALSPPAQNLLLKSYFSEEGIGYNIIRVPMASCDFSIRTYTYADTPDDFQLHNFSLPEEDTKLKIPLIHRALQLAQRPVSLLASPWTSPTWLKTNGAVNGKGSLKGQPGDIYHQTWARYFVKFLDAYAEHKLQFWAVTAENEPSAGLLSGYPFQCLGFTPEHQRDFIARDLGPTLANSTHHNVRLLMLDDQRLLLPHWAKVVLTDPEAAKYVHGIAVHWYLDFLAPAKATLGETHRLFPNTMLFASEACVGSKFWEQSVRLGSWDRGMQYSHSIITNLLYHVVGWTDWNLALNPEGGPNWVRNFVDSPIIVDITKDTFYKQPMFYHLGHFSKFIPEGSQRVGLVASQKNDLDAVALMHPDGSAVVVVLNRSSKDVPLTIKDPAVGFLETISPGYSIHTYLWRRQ

[1] = test system: CD44 and hyaluronate in follicular and interfollicular epidermis; settings: topical application, mice; cited from earlier work
epidermal retinoids = settings: hairless mice, topical 0.05% for 7 days, then UVB 1 J/cm^2, cited from earlier work; for Prevention of photo-induced depletion of epidermal retinylic esters / retinoids: assayed 24 h after radiation

## glycylglycine oleamide [OGG]
Keratinocytes A431
  Induction / modulation of retinylic esters and cell retinoids in keratinocytes (in words): significantly increased
Keratinocytes A431; agent 15 μM in 1% ethanol
  Retinol: <10 pmol/mg of protein
  Retinylic esters: <10 pmol/mg of protein
Keratinocytes A431; agent 15 μM
  Total: <10 pmol/mg of protein

## NCC(=O)NCC(=O)O [GG, glycylglycine] (H-Gly-Gly-OH)
Keratinocytes A431; agent 15 μM in 1% ethanol
  Retinol: <10 pmol/mg of protein
  Retinylic esters: <10 pmol/mg of protein
Keratinocytes A431; agent 15 μM
  Total: <10 pmol/mg of protein

## CCCCCCCC/C=C\CCCCCCCC(=O)O [OA, oleic acid]
Keratinocytes A431; agent 15 μM in 1% ethanol
  Retinol: <10 pmol/mg of protein
  Retinylic esters: <10 pmol/mg of protein
Keratinocytes A431; agent 15 μM
  Total: <10 pmol/mg of protein

## Cc1cc(O[C@@H]2O[C@H](CO)[C@@H](O)[C@H](O)[C@H]2O)cc2c1O[C@](C)(CCC[C@H](C)CCC[C@H](C)CCCC(C)C)CC2 [delta-tocopherol-glucopyranoside]
glucocerebrosidase
  Release of delta-tocopherol on enzymatic hydrolysis: slowly releases delta-tocopherol

## CCCCCCCCCCCCCCCC(=O)OC/C=C(C)/C=C/C=C(C)/C=C/C1=C(C)CCCC1(C)C [ROL-Pal, retinyl palmitate]
Keratinocytes A431
  Induction / modulation of retinylic esters and cell retinoids in keratinocytes (in words): less cell retinoids than retinaldehyde
Keratinocytes A431; agent 15 μM in 1% ethanol
  Retinol: 389 pmol/mg of protein
  Retinylic esters: 178 pmol/mg of protein
Keratinocytes A431; agent 15 μM
  Total: 567 pmol/mg of protein

## CC1=C(/C=C/C(C)=C/C=C/C(C)=C/C=O)C(C)(C)CCC1 [RAL, retinaldehyde]
[1]
  Epidermal hyperplasia: inducing epidermal hyperplasia
  Expression of CD44 and of hyaluronate versus retinoic acid and retinol: more strongly increased
Epidermal retinoids
  Prevention of photo-induced depletion of epidermal retinylic esters / retinoids: prevent photo-induced depletion of epidermal retinylic esters
  Profile in the study of photo-induced depletion of retinoids: best profile
Keratinocytes A431
  Induction / modulation of retinylic esters and cell retinoids in keratinocytes (in words): induces a series of retinylic esters
Keratinocytes A431; agent 2 μM in 1% ethanol
  Retinol: 865 pmol/mg of protein
  Retinylic esters: 280 pmol/mg of protein
Keratinocytes A431; agent 2 μM
  Total: 1145 pmol/mg of protein

## CC1=C(/C=C/C(C)=C/C=C/C(C)=C/CO)C(C)(C)CCC1 [retinol, reference compound]
Epidermal retinoids
  Prevention of photo-induced depletion of epidermal retinylic esters / retinoids: prevent photo-induced depletion of epidermal retinylic esters
